Results reported in patent publication US9695155B2, “Herbicidal substituted pyrimidinyloxy benzene compounds” (E. I. DU PONT DE NEMOURS AND COMPANY, priority 2013, dated 2017).

How the values were obtained:
[1] = system: field violet; assay: Test D preemergence; format: in vivo, Viola arvensis; conditions: Viola arvensis, pre-emergence, scale 0-100, read-out: Plant response rating, Field Violet
Description: (§1) Seeds of plant species selected from bluegrass (annual bluegrass, Poa annua), blackgrass (Alopecurus myosuroides), canarygrass (littleseed canarygrass, Phalaris minor), chickweed (common chickweed, Stellaria media), galium (catchweed bedstraw, Galium aparine), bromegrass, downy (downy bromegrass, Bromus tectorum), field poppy (Papaver rhoeas), field violet (Viola arvensis), green foxtail (Setaria viridis), deadnettle (henbit deadnettle, Lamium amplexicaule), Italian ryegrass (Lolium multiflorum), kochia (Kochia scoparia), lambsquarters (Chenopodium album), oilseed rape (Brassica napus), pigweed (Amaranthus retroflexus), chamomile (scentless chamomile, Matricaria inodora), Russian thistle (Salsola kali), speedwell (bird's-eye speedwell, Veronica persica), spring barley (Hordeum vulgare), spring wheat (Triticum aestivum), wild buckwheat (Polygonum convolvulus), wild mustard (Sinapis arvensis), wild oat (Avena fatua), wild radish (Raphanus raphanistrum), windgrass (Apera spica-venti), winter barley (Hordeum vulgare), and winter wheat (Triticum aestivum) were planted into a silt loam soil and treated preemergence with test chemicals formulated in a non-phytotoxic solvent mixture which included a surfactant.
(§2) At the same time, these species were planted in pots containing Redi-Earth® planting medium (Scotts Company, 14111 Scottslawn Road, Marysville, Ohio 43041) comprising spaghnum peat moss, vermiculite, wetting agent and starter nutrients and treated with postemergence applications of the test chemicals formulated in the same manner. Plants ranged in height from 2 to 18 cm (1- to 4-leaf stage). Treated plants and controls were maintained in a controlled growth environment for 7 to 21 days after which time all species were compared to controls and visually evaluated. Plant response ratings, summarized in Table D, are based on a scale of 0 to 100 where 0 is no effect and 100 is complete control. A dash (-) response means no test result.

[2] = system: pigweed; assay: Test D preemergence; format: in vivo, Amaranthus retroflexus; conditions: Amaranthus retroflexus, pre-emergence
Description: as §1, §2

[3] = system: wild oat; assay: Test D preemergence; format: in vivo, Avena fatua; conditions: Avena fatua, pre-emergence, scale 0-100, read-out: Plant response rating, Oat, Wild
Description: as §1, §2

[4] = system: spring wheat; assay: Test D postemergence; format: in vivo, Triticum aestivum; conditions: Triticum aestivum, post-emergence, scale 0 to 100 (0 no effect, 100 complete control), read-out: Plant response rating, Wheat, Spring
Description: as §1, §2

[5] = system: winter wheat; assay: Test D postemergence; format: in vivo, Triticum aestivum; conditions: Triticum aestivum, post-emergence, scale 0 to 100 (0 no effect, 100 complete control), read-out: Plant response rating, Wheat, Winter
Description: as §1, §2

[6] = system: cocklebur; assay: Test E preemergence; format: in vivo, Xanthium strumarium; conditions: for Cocklebur plant response rating: scale 0 to 100 (0 no effect, 100 complete control); for Plant response rating, Cocklebur: scale 0 to 100, 0 no effect, 100 complete control
Description: Seeds of plant species selected from corn (Zea mays), soybean (Glycine max), velvetleaf (Abutilon theophrasti), lambsquarters (Chenopodium album), wild poinsettia (Euphorbia heterophylla), palmer pigweed (Amaranthus palmeri), waterhemp (common waterhemp, Amaranthus rudis), surinam grass (Brachiaria decumbens), large (Lg) crabgrass (Digitaria sanguinalis), Brazilian crabgrass (Digitaria horizontalis), fall panicum (Panicum dichotomiflorum), giant foxtail (Setaria faberii), green foxtail (Setaria viridis), goosegrass (Eleusine indica), johnsongrass (Sorghum halepense), ragweed (common ragweed, Ambrosia elatior), barnyardgrass (Echinochloa crus-galli), sandbur (southern sandbur, Cenchrus echinatus), arrowleaf sida (Sida rhombifolia), Italian ryegrass (Lolium multiflorum), dayflower (Virginia (VA) dayflower, Commelina virginica), field bindweed (Convolvulus arvensis), morningglory (Ipomoea coccinea), nightshade (eastern black nightshade, Solanum ptycanthum), kochia (Kochia scoparia), yellow nutsedge (Cyperus esculentus), cocklebur (common cocklebur, Xanthium strumarium), smartweed (ladysthumb smartweed, and hairy beggarticks (Bidens pilosa), were planted into a silt loam soil and treated preemergence with test chemicals formulated in a non-phytotoxic solvent mixture which included a surfactant.
At the same time, plants from these crop and weed species and also horseweed (Canada horseweed, Conyza canadensis), waterhemp_RES1, (ALS & Triazine resistant common waterhemp, Amaranthus rudis), and waterhemp_RES2, (ALS & HPPD resistant common waterhemp, Amaranthus rudis) were planted in pots containing Redi-Earth® planting medium (Scotts Company, 14111 Scottslawn Road, Marysville, Ohio 43041) comprising spaghnum peat moss, vermiculite, wetting agent and starter nutrients were treated with postemergence applications of test chemicals formulated in the same manner. Plants ranged in height from 2 to 18 cm for postemergence treatments (1- to 4-leaf stage). Treated plants and controls were maintained in a greenhouse for 14 to 21 days, after which time all species were compared to controls and visually evaluated. Plant response ratings, summarized in Table E, are based on a scale of 0 to 100 where 0 is no effect and 100 is complete control. A dash (-) response means no test result.

In the case of `N#Cc1cccc(Oc2ncc(Cl)cn2)c1-n1cc(Br)cn1` [Compound 52, 2-(4-bromo-1H-pyrazol-1-yl)-3-[(5-chloro-2-pyrimidinyl)oxy]benzonitrile], the pest or weed control at 31 g/ha ([1]; 31 g ai/ha) is reported as 75%, the pest or weed control at 62 g/ha ([1]; 62 g ai/ha) is reported as 95% and the pest or weed control at 125 g/ha ([1]; 125 g ai/ha) is reported as 100%. For the same molecule, the pest or weed control at 250 g/ha ([1]; 250 g ai/ha) was 100%, the pest or weed control at 31 g/ha ([2]; 31 g ai/ha, scale 0 (no effect) to 100 (complete control), read-out: Plant response rating, Pigweed) was 100% and the pest or weed control at 62 g/ha ([2]; 62 g ai/ha, scale 0-100, read-out: Plant response rating, Pigweed) was 100%. The pest or weed control at 125 g/ha ([2]; 125 g ai/ha, scale 0-100, read-out: Plant response rating, Pigweed) was 100%, the pest or weed control at 250 g/ha ([2]; 250 g ai/ha, scale 0-100, read-out: Plant response rating, Pigweed) was 100% and the pest or weed control at 31 g/ha ([3]; 31 g ai/ha) was 0%. It also gave a pest or weed control at 62 g/ha ([3]; 62 g ai/ha) of 0%, a pest or weed control at 125 g/ha ([3]; 125 g ai/ha) of 0% and a pest or weed control at 250 g/ha ([3]; 250 g ai/ha) of 20%. It also gave a plant injury at 31 g/ha ([4]; 31 g ai/ha) of 5%, a plant injury at 62 g/ha ([4]; 62 g ai/ha) of 10% and a plant injury at 125 g/ha ([4]; 125 g ai/ha) of 10%. It also gave a plant injury at 250 g/ha ([4]; 250 g ai/ha) of 15%, a plant injury at 31 g/ha ([5]; 31 g ai/ha) of 10% and a plant injury at 62 g/ha ([5]; 62 g ai/ha) of 15%. The plant injury at 125 g/ha ([5]; 125 g ai/ha) was 20%, the plant injury at 250 g/ha ([5]; 250 g ai/ha) was 25% and the “Cocklebur plant response rating” value ([6]; 16 g ai/ha) was 0. For the same molecule, the “Cocklebur plant response rating” value ([6]; 31 g ai/ha) was 0, the “Cocklebur plant response rating” value ([6]; 62 g ai/ha) was 0 and the “Plant response rating, Cocklebur” value ([6]; 250 g ai/ha) was 25.
`N#Cc1cccc(Oc2ncc(Cl)cn2)c1-n1cc(Cl)cn1` [Compound 72] was tested, and the “Cocklebur plant response rating” value ([6]; 16 g ai/ha) was 0, the “Plant response rating, Cocklebur” value ([6]; 125 g ai/ha) was 0 and the “Plant response rating, Cocklebur” value ([6]; 250 g ai/ha) was 15.
`N#Cc1cnn(-c2c(C#N)cccc2Oc2ncc(Cl)cn2)c1` [Compound 200] was tested, and the “Cocklebur plant response rating” value ([6]; 16 g ai/ha) was 0, the “Cocklebur plant response rating” value ([6]; 31 g ai/ha) was 0 and the “Plant response rating, Cocklebur” value ([6]; 125 g ai/ha) was 75. For the same molecule, the “Plant response rating, Cocklebur” value ([6]; 250 g ai/ha) was 95.
